In paper PMC4975955 (Journal of molecular biology, 2016):

Tests used:
[1] = molecular target: TmRibU (Thermotoga maritima, UniProt Q9X1G6, N123A); experiment: thermal melting by analytical SEC peak height; type: binding; details: NG detergent; difference of mutant to wild-type complex, no apo reference
[2] = molecular target: TmRibUΔCt (Thermotoga maritima, UniProt Q9X1G6); experiment: X-ray crystallography, […] Å; type: binding; details: co-purified substrate; extracellular pocket of TM4-6 and Loop1-2
TmRibUΔCt, sequence (Q9X1G6 1-173, stated change not applied): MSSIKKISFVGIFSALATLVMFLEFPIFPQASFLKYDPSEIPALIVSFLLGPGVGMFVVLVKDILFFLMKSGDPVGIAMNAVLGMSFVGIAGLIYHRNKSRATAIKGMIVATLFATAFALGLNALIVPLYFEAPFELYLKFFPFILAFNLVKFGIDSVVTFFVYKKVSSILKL

TmRibU, sequence (Q9X1G6 whole entry N123A): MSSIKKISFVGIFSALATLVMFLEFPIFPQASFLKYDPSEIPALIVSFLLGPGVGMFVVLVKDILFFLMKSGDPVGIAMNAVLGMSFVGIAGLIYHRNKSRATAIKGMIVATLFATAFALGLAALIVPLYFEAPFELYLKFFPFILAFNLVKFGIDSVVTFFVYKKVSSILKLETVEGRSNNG

- decrease of Tm of riboflavin complex vs WT [1]: ~ 23 °C
SMILES: Cc1cc2nc3c(=O)[nH]c(=O)nc-3n(C[C@H](O)[C@H](O)[C@H](O)CO)c2cc1C [riboflavin]
- X-ray crystallography, 2.6 Å (also 3.2 and 3.4 Å) [2]: we determined the crystal structure of riboflavin-bound TmRibU
